Laboratory results: patent publication US11596639B2, “Substituted indole Mcl-1 inhibitors” (Vanderbilt University, priority 2016, dated 2023)
Read-outs that look alike come from different tables or passages of the source.

Tests used:
[1] = test system: H929 human cancer cell lines; test: Cellular viability / proliferation (Cell TiterGlo, 72 h); type: cell-based
Summary of the method: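 Compounds were added as 2-fold serial dilutions from 50 μM (final DMSO <1%) to H929 cells seeded 1,000 per well in 10% FBS medium one day earlier.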

Mcl-1 = Mcl-1 (Homo sapiens (Human), UniProt Q07820); test: Fluorescence polarization anisotropy (FPA) competition assay, FITC-Bak or FITC-Bim BH3 peptide; type: binding; conditions: read-out: Ki for Inhibition of Mcl-1 by FPA assay
[2] = Homo sapiens, NCI-H929, 72 h, read-out: GI50 on cellular proliferation of H929 human cancer cell lines, H929 cells, 72 h, Cell TiterGlo, 10% FBS

Mcl-1, sequence (Q07820 172-327): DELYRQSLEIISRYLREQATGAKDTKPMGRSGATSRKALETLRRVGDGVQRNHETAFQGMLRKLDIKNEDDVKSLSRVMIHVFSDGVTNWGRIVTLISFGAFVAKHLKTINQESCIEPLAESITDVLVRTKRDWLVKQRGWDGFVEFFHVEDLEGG

**Q.** `Cc1cc(OCCCc2c3n(c4c(-c5c(C)nn(C)c5C)c(Cl)ccc24)[C@H](C)CN(c2cccc4c2c(C(=O)O)cn4C)C3=O)cc(C)c1Cl` [Example 182, 4-[(4R)-7-chloro-10-[3-(4-chloro-3,5-dimethyl-phenoxy)propyl]-4-methyl-1-oxo-6-(1,3,5-trimethylpyrazol-4-yl)-3,4-dihydropyrazino[1,2-a]indol-2-yl]-1-methyl-indole-3-carboxylic acid] was tested. Which GI50 [1, 2] did it give?
**A.** Its GI50 is 1500 nM.

**Q.** And the Ki (Mcl-1)?
**A.** The Ki was < 1 nM.

**Q.** `Cc1cc(OCCCc2c3n(c4c(-c5c(C)nn(C)c5C)c(Cl)ccc24)[C@H](C)CN(c2cn(C)c4cc(C(=O)O)ccc24)C3=O)cc(C)c1Cl` [Example 88, (R)-3-(7-Chloro-10-(3-(4-chloro-3,5-dimethylphenoxy)propyl)-4-methyl-1-oxo-6-(1,3,5-trimethyl-1H-pyrazol-4-yl)-3,4-dihydropyrazino[1,2-a]indol-2(1H)-yl)-1-methyl-1H-indole-6-carboxylic acid] was tested. Which GI50 [1, 2] did it give?
**A.** The GI50 was 290 nM.

**Q.** What about the Ki (Mcl-1) of the same compound?
**A.** The Ki was < 1 nM.

**Q.** For `Cc1cc(OCCCc2c3n(c4c(-c5c(C)nn(C)c5C)c(Cl)ccc24)[C@H](C)CN(c2ccc(OCc4ccccc4)c4c2cc(C(=O)O)n4C)C3=O)cc(C)c1Cl` [Example 299, (P, R)-7-(benzyloxy)-4-(7-chloro-10-(3-(4-chloro-3,5-dimethylphenoxy)propyl)-4-methyl-1-oxo-6-(1,3,5-trimethyl-1H-pyrazol-4-yl)-3,4-dihydropyrazino[1,2-a]indol-2(1H)-yl)-1-methyl-1H-indole-2-carboxylic acid], which GI50 ([1]; H929 cells, 72 h, Cell TiterGlo, 10% FBS, read-out: GI50 on cellular proliferation of H929 human cancer cell lines) is on record?
**A.** The GI50 was 2300 nM.

**Q.** What about the Ki (Mcl-1) of the same compound?
**A.** The Ki was 2 nM.

**Q.** How did the GI50 [1, 2] turn out when `Cc1cc(OCCCc2c3n(c4c(-c5c(C)nn(C)c5C)c(Cl)ccc24)CCCN(c2cc(C(=O)O)cc4c2ccn4CCN(C)C)C3=O)cc(C)c1Cl` [Example 11, 4-(8-Chloro-11-(3-(4-chloro-3,5-dimethylphenoxy)propyl)-1-oxo-7-(1,3,5-trimethyl-1H-pyrazol-4-yl)-4,5-dihydro-1H-[1,4]diazepino[1,2-a]indol-2(3H)-yl)-1-(2-(dimethylamino)ethyl)-1H-indole-6-carboxylic acid] was run?
**A.** Its GI50 is 9900 nM.

**Q.** What about the Ki (Mcl-1) of the same compound?
**A.** The Ki was 4 nM.

**Q.** With `Cc1cc(OCCCc2c3n(c4c(-c5c(C)nn(C)c5C)c(Cl)ccc24)[C@H](C)CN(c2cn(C)c4c(C#N)cccc24)C3=O)cc(C)c1Cl` [Example 209, (R)-3-(7-Chloro-10-(3-(4-chloro-3,5-dimethylphenoxy)propyl)-4-methyl-1-oxo-6-(1,3,5-trimethyl-1H-pyrazol-4-yl)-3,4-dihydropyrazino[1,2-a]indol-2(1H)-yl)-1-methyl-1H-indole-7-carbonitrile] as the compound, how does the GI50 [1, 2] read?
**A.** Its GI50 is 3500 nM.

**Q.** What about the Ki (Mcl-1) of the same compound?
**A.** The Ki was 1.2 nM.

**Q.** `Cc1cc(OCCCc2c3n(c4c(-c5c(C)nn(C)c5C)c(Cl)ccc24)[C@H](C)CN(c2cn(C)c4ccc(C(=O)N(C)Cc5cccnc5)cc24)C3=O)cc(C)c1Cl` [Example 282, 3-[(4R)-7-chloro-10-[3-(4-chloro-3,5-dimethyl-phenoxy)propyl]-4-methyl-1-oxo-6-(1,3,5-trimethylpyrazol-4-yl)-3,4-dihydropyrazino[1,2-a]indol-2-yl]-N,1-dimethyl-N-(3-pyridylmethyl)indole-5-carboxamide] was tested. Which GI50 [1, 2] did it give?
**A.** The GI50 was 2400 nM.

**Q.** What about the Ki (Mcl-1) of the same compound?
**A.** The Ki was 8.4 nM.

**Q.** What does the source list for `Cc1cc(OCCCc2c3n(c4c(-c5c(C)nn(CCN6CCCC6)c5C)c(Cl)ccc24)[C@H](C)CN(c2cn(C)c4ccc(C(=O)O)cc24)C3=O)cc(C)c1Cl` [Example 263, (R)-3-(7-chloro-10-(3-(4-chloro-3,5-dimethylphenoxy)propyl)-6-(3,5-dimethyl-1-(2-(pyrrolidin-1-yl)ethyl)-1H-pyrazol-4-yl)-4-methyl-1-oxo-3,4-dihydropyrazino[1,2-a]indol-2(1H)-yl)-1-methyl-1H-indole-5-carboxylic acid]?
**A.** GI50 [1, 2]: 270 nM; Ki (Mcl-1): 1.8 nM

**Q.** `Cc1cc(OCCCc2c3n(c4c(-c5c(C)nn(CC6CCOCC6)c5C)c(Cl)ccc24)[C@H](C)CN(c2cccc4c(C(=O)O)cn(C)c24)C3=O)cc(C)c1Cl` [Example 128, (R)-7-(7-chloro-10-(3-(4-chloro-3,5-dimethylphenoxy)propyl)-6-(3,5-dimethyl-1-((tetrahydro-2H-pyran-4-yl)methyl)-1H-pyrazol-4-yl)-4-methyl-1-oxo-3,4-dihydropyrazino[1,2-a]indol-2(1H)-yl)-1-methyl-1H-indole-3-carboxylic acid] was tested. Which GI50 [1, 2] did it give?
**A.** Its GI50 is 410 nM.

**Q.** And the Ki (Mcl-1)?
**A.** The Ki was < 1 nM.

**Q.** Which results are given for `Cc1cc(OCCCc2c3n(c4c(-c5c(C)nn(C)c5C)c(Cl)ccc24)[C@H](C)CN(c2cccc4c(C(=O)O)cn(C)c24)C3=O)cc(C)c1Cl` [Example 69, (R)-7-(7-Chloro-10-(3-(4-chloro-3,5-dimethylphenoxy)propyl)-4-methyl-1-oxo-6-(1,3,5-trimethyl-1H-pyrazol-4-yl)-3,4-dihydropyrazino[1,2-a]indol-2(1H)-yl)-1-methyl-1H-indole-3-carboxylic acid]?
**A.** GI50 ([1]; read-out: GI50 on cellular proliferation of H929 human cancer cell lines, H929 cells, 72 h, Cell TiterGlo, 10% FBS): < 200 nM; Ki (Mcl-1): < 1 nM

**Q.** How did the GI50 [1, 2] turn out when `Cc1nnc(-c2ccc3c(c2)c(N2C[C@@H](C)n4c(c(CCCOc5cc(C)c(Cl)c(C)c5)c5ccc(Cl)c(-c6c(C)nn(C)c6C)c54)C2=O)cn3C)o1` [Example 337, (R)-7-Chloro-10-(3-(4-chloro-3,5-dimethylphenoxy)propyl)-4-methyl-2-(1-methyl-5-(5-methyl-1,3,4-oxadiazol-2-yl)-1H-indol-3-yl)-6-(1,3,5-trimethyl-1H-pyrazol-4-yl)-3,4-dihydropyrazino[1,2-a]indol-1(2H)-one] was run?
**A.** The GI50 was 540 nM.

**Q.** What about the Ki (Mcl-1) of the same compound?
**A.** The Ki was 2.6 nM.

**Q.** Which GI50 [1, 2] does the source give for `Cc1cc(OCCCc2c3n(c4c(-c5c(C)nn(C)c5C)c(Cl)ccc24)CCCN(c2cccc4c(-c5nn[nH]n5)cn(C)c24)C3=O)cc(C)c1Cl` [Example 15, 8-Chloro-11-[3-(4-chloro-3,5-dimethyl-phenoxy)propyl]-2-[1-methyl-3-(2H-tetrazol-5-yl)indol-7-yl]-7-(1,3,5-trimethylpyrazol-4-yl)-4,5-dihydro-3H-[1,4]diazepino[1,2-a]indol-1-one] here?
**A.** The GI50 was 11000 nM.

**Q.** And the Ki (Mcl-1)?
**A.** The Ki was 2.2 nM.

**Q.** With `Cc1cc(OCCCc2c3n(c4c(-c5c(C)nn(C)c5C)c(Cl)ccc24)[C@H](C)CN(c2cccc4c(C(=O)O)cccc24)C3=O)cc(C)c1Cl` [Example 63, (R)-5-(7-Chloro-10-(3-(4-chloro-3,5-dimethylphenoxy)propyl)-4-methyl-1-oxo-6-(1,3,5-trimethyl-1H-pyrazol-4-yl)-3,4-dihydropyrazino[1,2-a]indol-2(1H)-yl)-1-naphthoic acid] as the compound, how does the GI50 [1, 2] read?
**A.** Its GI50 is 270 nM.

**Q.** And the Ki (Mcl-1)?
**A.** The Ki was < 1 nM.

**Q.** `CCn1cc(N2C[C@@H](C)n3c(c(CCCOc4cc(C)c(Cl)c(C)c4)c4ccc(Cl)c(-c5c(C)nn(C)c5C)c43)C2=O)c2cc(C(=O)O)ccc21` [Example 164, (R)-3-(7-Chloro-10-(3-(4-chloro-3,5-dimethylphenoxy)propyl)-4-methyl-1-oxo-6-(1,3,5-trimethyl-1H-pyrazol-4-yl)-3,4-dihydropyrazino[1,2-a]indol-2(1H)-yl)-1-ethyl-1H-indole-5-carboxylic acid] was tested. Which GI50 [1, 2] did it give?
**A.** The GI50 was 920 nM.

**Q.** What about the Ki (Mcl-1) of the same compound?
**A.** The Ki was 1.7 nM.

**Q.** For `Cc1cc(OCCCc2c3n(c4c(-c5c(C)nn(C)c5C)c(Cl)ccc24)CCCN(c2cc(C(=O)O)c4nnn(C)c4c2)C3=O)cc(C)c1Cl` [Example 4, 6-[8-Chloro-11-[3-(4-chloro-3,5-dimethyl-phenoxy)propyl]-1-oxo-7-(1,3,5-trimethylpyrazol-4-yl)-4,5-dihydro-3H-[1,4]diazepino[1,2-a]indol-2-yl]-1-methyl-benzotriazole-4-carboxylic acid], which GI50 [1, 2] is on record?
**A.** Its GI50 is 8700 nM.

**Q.** And the Ki (Mcl-1)?
**A.** The Ki was 3.3 nM.
